How the values were obtained:
[1] = in vitro; type: in vitro ADME; conditions: for Papp at 5 h, 10 µM: PAMPA, pH 7.4
Procedure: The experiment was carried out by the Center for Applied Mass Spectrometry (CEMSA), São Paulo, Brazil. In brief, the Parallel Artificial Membrane Permeability Assay (PAMPA) assay consists of quantifying the test compound (via HPLC–MS/MS) after an incubation period, in two solutions separated by an artificial lipid membrane. The result of this test is expressed in units of diffusion rate (permeation). The procedure comprised the following steps: (1) preparing the membrane, which contains lipids, with specific activating solutions, creating a hydrophobic surface that simulates the intestinal epithelial cell; (2) adding the test compound at a concentration of 10 µM to the donor aqueous phase (buffered pH 7.4); (3) after 5 h at room temperature, an aliquot of the solution receptor (buffered at pH 7.4) is removed, in which the compound is transported by passive diffusion, for quantification by HPLC–MS/MS.

[2] = Metabolic stability in rat liver microsomes; type: in vitro ADME; conditions: for Metabolism rate class: rat microsomes, classes by Clint; for CLint scaled / half-life: rat, microsomes
Procedure: The experiment was carried out by the Center for Applied Mass Spectrometry (CEMSA), São Paulo, Brazil. In brief, the metabolic stability assay was performed in the presence of rat liver microsomes. Compounds were incubated at 37 °C in a buffered solution containing 1 mg/mL of microsomal protein and nicotinamide adenine dinucleotide […]. The reaction was stopped at different times using acetonitrile. The compound concentration was determined by HPLC–MS/MS at each incubation time (0, 5, 15, and 30 min) and the percentage remaining versus time curve was determined. Verapamil was used as an analytical control (data not shown).

[3] = type: physicochemical; conditions: buffer, 24 h, 10 µM
Procedure: The experiment was carried out by the Center for Applied Mass Spectrometry (CEMSA), São Paulo, Brazil. In brief, the test compounds (10 µM) were incubated at 37 °C for 24 h in the presence of pH-controlled buffer solution at pH 1.2 (simulating the pH of the stomach—0.1 M HCl), pH 7.4 (simulating plasma pH—phosphate buffer) and pH 9.1 (simulating intestinal pH—0.1 M NH4HCO3). Afterward, compounds were quantified by HPLC–MS/MS. Alprenolol drug was used as an analytical control (data not shown). The results were presented as the percentage, comparing the signal at time zero of the assay (100%) with the signal produced by concentrations after the incubation period.

[4] = Cellular viability of Vero cells (MTT and neutral red uptake); type: cell-based; conditions: African green monkey, Vero cells; MTT method, 72 h
Procedure: (§1) Cellular viability was determined using two distinct methods—3-(4,5-dimethylthiazol-2-yl)-2,5-diphenyl-2H-tetrazolium bromide (MTT) and neutral red uptake (NRU). The cell lines employed in the evaluation were Vero and HepG2 cells. Both cell lines were grown with Dulbecco’s Modified Eagle Medium (DMEM-Gibco, Grand Island, NY, USA) and supplemented with 10% fetal bovine serum by Invitrogen, 1% antibiotics (penicillin and streptomycin) by Gibco, and 0.1% fungizone by Gibco. For the MTT and NRU assays, Vero (2 × 10^3 cells/well) and HepG2 (4 × 10^3 cells/well) cells were seeded in 96-well culture plates and incubated overnight. The N-(4-(benzyloxy)benzyl)-4-aminoquinolines were diluted at concentrations of 3 µM using DMSO 1% and were incubated with the cell lines for 72 h at 37 °C. In the MTT investigation, after incubation for 72 h at 37 °C under 5% CO2, the cells were incubated with MTT solution (5 mg/mL, Sigma-Aldrich, St. Louis, MO, USA) for 4 h. The formazan crystals were solubilized in 100 µL of DMSO. An EZ Read 400 microplate reader (Biochrom, Cambridge, UK) was used to measure the absorbance at 570 nm. The mean absorbance of negative control wells was established as the maximum viability and the values of treated cells were calculated as the percentage of vehicle control (1% DMSO). The precipitated purple formazan crystals were directly equivalent to the number of live cells with active mitochondrial metabolism. In the NRU investigation, after 72 h of cell incubation, PBS was used to wash the cells and 200 µL of neutral red dye solution (25 µg/mL, Sigma-Aldrich, St. Louis, MO, USA) prepared in serum-free medium was added to the plate and incubated for 3 h at 37 °C under 5% CO2. Cells were washed with PBS followed by the addition of 100 µL of desorb solution (ethanol/acetic acid/water, 50:1:49) for 30 min with smooth homogenization to extract neutral red dye from the viable cells. An EZ Read 400 microplate reader was operated to measure the absorbance at 562 nm, and the cell viability was attributed as a percentage, considering the vehicle control cell (1% DMSO) as maximum cell viability.

[5] = tested on: Vero cells; test: as above; type: cell-based; conditions: for Vero cell viability in words: 72 h at concentrations similar to MIC, MTT and neutral red; for CC50: neutral red method, 72 h
Procedure: as §1

[6] = Cellular viability of HepG2 cells (MTT and neutral red uptake); type: cell-based; conditions: human, HepG2 cells; MTT method, 72 h
Procedure: as §1

[7] = tested on: HepG2 cells; test: as above; type: cell-based; conditions: for HepG2 cell viability in words: 72 h at concentrations similar to MIC, MTT and neutral red; for CC50: neutral red method, 72 h
Procedure: as §1

[8] = tested on: M. tuberculosis H37Rv; test: Minimum inhibitory concentration (resazurin microplate); type: cell-based, Mycobacterium tuberculosis; conditions: Mycobacterium tuberculosis; M. tuberculosis H37Rv; 7 days + 48 h resazurin; highest value of three assays

Row | Compound | Passive permeability (PAMPA) in words [1] | Papp at 5 h, 10 µM [1] [×10⁻⁶ cm/s] | Metabolism rate class [2] | CLint scaled [2] [mL/min/kg] | half-life [2] [min] | Chemical Stability pH 1.2, remaining compound [3] [%] | Chemical Stability pH 7.4, remaining compound [3] [%] | Chemical Stability pH 9.1, remaining compound [3] [%] | CC50 at 72 h [4] [nM] | Vero cell viability in words [5] | CC50 [5] [nM] | melting point [°C] | CC50 at 72 h [6] [nM] | HepG2 cell viability in words [7] | CC50 [7] [nM] | MIC [8] [µM]
1 | Cc1cc(NCc2ccc(OCc3ccc(Cl)cc3)cc2)c2cc(Br)ccc2n1 [Compound 9n, N-(4-((4-chlorobenzyl)oxy)benzyl)-6-bromo-2-methylquinolin-4-amine] | low permeability | 0.3 | moderate (moderate metabolism rates (47 ≤ Clint ≥ 16)) | 39 | 19 | 14.9 | 5.0 | 13.8 | > 3000 | not significantly altered | > 3000 | 184 to 186 | > 3000 | not significantly altered | > 3000 | 2.7
2 | Cc1cc(NCc2ccc(OCc3ccc(F)cc3)cc2)c2cc(Br)ccc2n1 [Compound 9o, N-(4-((4-fluorobenzyl)oxy)benzyl) 6-bromo-2-methylquinolin-4-amine] | high permeability | 3 | high (high metabolism rates (Clint > 47)) | 56 | 7.9 | 22.9 | 7.6 | 11.1 | > 3000 | not significantly altered | > 3000 | 173 to 175 | > 3000 | not significantly altered | > 3000 | 2.8

Source: paper PMC9027910, “Synthesis and Antimycobacterial Evaluation of N-(4-(Benzyloxy)benzyl)-4-aminoquinolines” (Molecules, 2022)
